Experimental data from patent publication US10738028B2, “Spiro three-membered ring, spiro five-membered ring peptide deformylase inhibitor and use thereof in antibacteria and anti-tumor” (priority 2016, dated 2020).
≈ marks a conversion by molar mass, not a printed value.

Legend:
Type in all cases: cell-based
[1] = test system: methicillin-resistant Staphylococcus epidermidis (MRSE); experiment: MIC, two-fold agar dilution (CLSI), clinical isolates
Outline: (§1)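 Following the American Clinical and Laboratory Standards Institute procedure, agar two-fold dilution served to determine minimum inhibitory concentrations.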

[2] = test system: Enterococcus faecium (EFM); experiment: as above
Outline: as §1

[3] = test system: methicillin-sensitive Staphylococcus epidermidis (MSSE); experiment: as above
Outline: as §1

[4] = test system: Enterococcus faecalis (EFA); experiment: as above
Outline: as §1

[5] = test system: Streptococcus pneoumoniae (SPN); experiment: as above
Outline: as §1

[6] = test system: Escherichia coli (including ESBLs, non-ESBLs); experiment: as above
Outline: as §1

[7] = test system: methicillin-sensitive Staphylococcus aureus (MSSA); experiment: as above
Outline: as §1

[8] = test system: Moraxella catarrhalis (BCA); experiment: as above
Outline: as §1

[9] = test system: methicillin-resistant Staphylococcus aureus (MRSA); experiment: as above
Outline: as §1

[10] = MIC in vitro anti-bacterial experiments, Gram-positive bacteria; details: lowest MIC reached; read-out: minimum inhibitory concentration against Gram-positive bacteria
Source text: 1. The invention adopts the two-fold agar dilution method recommended by the operating procedure of antimicrobial susceptibility testing set by American Clinical and Laboratory Standards Institute (CLSI) to determine the Minimum Inhibitory Concentration (MIC) of the test samples against the tested strains.

[11] = test system: HCT-116 colorectal cancer cell line; experiment: CCK-8 proliferation inhibition; details: concentration of 30 μM, 72 hours, CCK-8; for HCT116 inhibition rate/%: 30 µM
Outline: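 Growth inhibition is read by CCK-8 (1:10 dilution) after 72 h of compound exposure. HCT-116 cells grow in McCoy's 5A containing 10% newborn bovine serum at 2000 cells/well, with 1‰ DMSO as vehicle control.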

[12] = test system: BEL-7402 liver cancer cell line; experiment: CCK-8 proliferation inhibition; details: concentration of 30 μM, 72 hours, 30 µM
Outline: (§2)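 Plating at 2000 cells/well, then incubation overnight at 37° C. Next, a range of compound concentrations for 72 hours (control 1‰ DMSO). Finally, medium decanted and CCK-8 diluted 1:10 added.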

[13] = test system: A549 lung cancer cell line; experiment: CCK-8 proliferation inhibition; details: concentration of 30 μM; for inhibition at 30 µM: Homo sapiens, A549, 72 h
Outline: as §2

[14] = test system: MGC-803 gastric cancer cell line; experiment: CCK-8 proliferation inhibition; details: concentration of 30 μM; for inhibition at 30 µM: Homo sapiens, MGC-803, 72 h; for Inhibition of proliferation, Gastric cancer MGC-803: 72 hours, 30 µM
Outline: as §2

CC(C)(C)c1cc(NC(=O)[C@@H]2CC3(CC3)CN2C(=O)[C@H](CC2CCCC2)CN(O)C=O)no1 [Example 38]
MIC (anti-bacterial activity) ([1]; strain MRSE 15-1): 0.25 µg/mL (≈ 0.543 µM)
MIC (anti-bacterial activity) ([1]; strain MRSE 15-2): 0.25 µg/mL (≈ 0.543 µM)
MIC (anti-bacterial activity) ([1]; strain MRSE 15-3): 0.25 µg/mL (≈ 0.543 µM)
MIC (anti-bacterial activity) ([1]; strain MRSE 15-7): 0.25 µg/mL (≈ 0.543 µM)
MIC (anti-bacterial activity) ([2]; strain EFM 15-1): 0.25 µg/mL (≈ 0.543 µM)
MIC (anti-bacterial activity) ([2]; strain EFM 15-2): 0.25 µg/mL (≈ 0.543 µM)
MIC (anti-bacterial activity) ([2]; strain EFM 15-3): 0.25 µg/mL (≈ 0.543 µM)
MIC (anti-bacterial activity) ([2]; strain EFM 15-4): 0.5 µg/mL (≈ 1.09 µM)
MIC (anti-bacterial activity) ([2]; strain EFM 15-5): 0.25 µg/mL (≈ 0.543 µM)
MIC (anti-bacterial activity) ([2]; strain EFM 15-6): 0.5 µg/mL (≈ 1.09 µM)
MIC (anti-bacterial activity) ([3]; strain MSSE 15-3): 0.25 µg/mL (≈ 0.543 µM)
MIC (anti-bacterial activity) ([3]; strain MSSE 15-4): 0.25 µg/mL (≈ 0.543 µM)
MIC (anti-bacterial activity) ([3]; strain MSSE 15-5): 0.25 µg/mL (≈ 0.543 µM)
MIC (anti-bacterial activity) ([3]; strain MSSE 15-6): < 0.008 µg/mL
MIC (anti-bacterial activity) ([4]; strain EFA 15-1): 4 µg/mL (≈ 8.68 µM)
MIC (anti-bacterial activity) ([4]; strain EFA 15-2): 4 µg/mL (≈ 8.68 µM)
MIC (anti-bacterial activity) ([4]; strain EFA 15-3): 0.25 µg/mL (≈ 0.543 µM)
MIC (anti-bacterial activity) ([4]; strain EFA 15-4): 4 µg/mL (≈ 8.68 µM)
MIC (anti-bacterial activity) ([4]; strain EFA 15-5): 4 µg/mL (≈ 8.68 µM)
MIC (anti-bacterial activity) ([4]; strain EFA 15-6): 4 µg/mL (≈ 8.68 µM)
MIC (anti-bacterial activity) ([4]; strain EFA 15-9): 4 µg/mL (≈ 8.68 µM)
MIC (anti-bacterial activity) ([5]; strain SPN 16-2): 0.25 µg/mL (≈ 0.543 µM)
MIC (anti-bacterial activity) ([5]; strain SPN 16-4): 0.5 µg/mL (≈ 1.09 µM)
MIC (anti-bacterial activity) ([6]; strain ECO+ 15-1): 16 µg/mL (≈ 34.7 µM)
MIC (anti-bacterial activity) ([6]; strain ECO+ 15-2): 32 µg/mL (≈ 69.5 µM)
MIC (anti-bacterial activity) ([6]; strain ECO+ 15-3): 16 µg/mL (≈ 34.7 µM)
MIC (anti-bacterial activity) ([6]; strain ECO+ 15-4): 16 µg/mL (≈ 34.7 µM)
MIC (anti-bacterial activity) ([6]; strain ECO− 15-1): 16 µg/mL (≈ 34.7 µM)
MIC (anti-bacterial activity) ([6]; strain ECO− 15-2): 32 µg/mL (≈ 69.5 µM)
MIC (anti-bacterial activity) ([6]; strain ECO− 15-3): 32 µg/mL (≈ 69.5 µM)
MIC (anti-bacterial activity) ([6]; strain ECO− 15-4): 32 µg/mL (≈ 69.5 µM)
MIC (anti-bacterial activity) ([7]; strain MSSA 15-3): 0.25 µg/mL (≈ 0.543 µM)
MIC (anti-bacterial activity) ([7]; strain MSSA 15-4): 0.25 µg/mL (≈ 0.543 µM)
MIC (anti-bacterial activity) ([7]; strain MSSA 15-5): 0.125 µg/mL (≈ 0.271 µM)
MIC (anti-bacterial activity) ([7]; strain MSSA 15-6): 0.125 µg/mL (≈ 0.271 µM)
Anti-bacterial activity (MIC), strain BCA 14-10 ([8]; clinical isolate BCA 14-10): 0.25 µg/mL
MIC (anti-bacterial activity) ([8]; strain BCA 14-1): 0.25 µg/mL (≈ 0.543 µM)
MIC (anti-bacterial activity) ([8]; strain BCA 14-4): 1 µg/mL (≈ 2.17 µM)
MIC (anti-bacterial activity) ([8]; strain BCA 14-5): 0.5 µg/mL (≈ 1.09 µM)
MIC (anti-bacterial activity) ([8]; strain BCA 14-6): 1 µg/mL (≈ 2.17 µM)
MIC (anti-bacterial activity) ([8]; strain BCA 14-7): 0.25 µg/mL (≈ 0.543 µM)
MIC (anti-bacterial activity) ([8]; strain BCA 14-8): 0.25 µg/mL (≈ 0.543 µM)
MIC (anti-bacterial activity) ([9]; strain MRSA 15-1): 0.125 µg/mL (≈ 0.271 µM)
MIC (anti-bacterial activity) ([9]; strain MRSA 15-2): 0.125 µg/mL (≈ 0.271 µM)
MIC (anti-bacterial activity) ([9]; strain MRSA 15-3): 0.125 µg/mL (≈ 0.271 µM)
MIC (anti-bacterial activity) ([9]; strain MRSA 15-4): 0.25 µg/mL (≈ 0.543 µM)
MIC [10]: < 0.008 µg/mL
inhibition at 30 µM ([11]; Homo sapiens, HCT-116, 72 h, read-out: HCT116 inhibition rate/%): > 50%
HCT116 inhibition rate/% [11]: 52%
Inhibition of proliferation, Liver cancer BEL-7402 [12]: 75%
inhibition at 30 µM [13]: 38%
inhibition at 30 µM [14]: > 50%
Inhibition of proliferation, Gastric cancer MGC-803 [14]: 50%

O=C(C[C@@H](CC1CCCC1)C(=O)N1CC2(CC2)C[C@H]1C(=O)Nc1nccs1)NO [Example 72, (S)-5-((R)-2-(cyclopentylmethyl)-4-(hydroxyamino)-4-oxobutanoyl)-N-(thiazol-2-yl)-5-azaspiro[2.4]heptane-6-carboxamide]
Anti-bacterial activity (MIC), strain MRSE 15-1 ([1]; clinical isolate MRSE 15-1): 0.03 µg/mL
Anti-bacterial activity (MIC), strain MRSE 15-2 ([1]; clinical isolate MRSE 15-2): 0.125 µg/mL
Anti-bacterial activity (MIC), strain MRSE 15-3 ([1]; clinical isolate MRSE 15-3): 0.125 µg/mL
Anti-bacterial activity (MIC), strain MRSE 15-7 ([1]; clinical isolate MRSE 15-7): 0.125 µg/mL
Anti-bacterial activity (MIC) ([2]; strain EFM 15-1): 32 µg/mL
Anti-bacterial activity (MIC) ([2]; strain EFM 15-2): 32 µg/mL
Anti-bacterial activity (MIC) ([2]; strain EFM 15-3): 32 µg/mL
Anti-bacterial activity (MIC) ([2]; strain EFM 15-4): 0.5 µg/mL
Anti-bacterial activity (MIC) ([2]; strain EFM 15-5): 0.125 µg/mL
Anti-bacterial activity (MIC) ([2]; strain EFM 15-6): 0.5 µg/mL
Anti-bacterial activity (MIC), strain MSSE 15-3 ([3]; clinical isolate MSSE 15-3): 0.06 µg/mL
Anti-bacterial activity (MIC), strain MSSE 15-4 ([3]; clinical isolate MSSE 15-4): 0.125 µg/mL
Anti-bacterial activity (MIC), strain MSSE 15-5 ([3]; clinical isolate MSSE 15-5): 0.125 µg/mL
Anti-bacterial activity (MIC), strain MSSE 15-6 ([3]; clinical isolate MSSE 15-6): < 0.008 µg/mL
Anti-bacterial activity (MIC) ([4]; strain EFA 15-1): 32 µg/mL
Anti-bacterial activity (MIC) ([4]; strain EFA 15-2): 32 µg/mL
Anti-bacterial activity (MIC) ([4]; strain EFA 15-3): 32 µg/mL
Anti-bacterial activity (MIC) ([4]; strain EFA 15-4): 32 µg/mL
Anti-bacterial activity (MIC) ([4]; strain EFA 15-5): 32 µg/mL
Anti-bacterial activity (MIC) ([4]; strain EFA 15-6): 32 µg/mL
Anti-bacterial activity (MIC) ([4]; strain EFA 15-9): 2 µg/mL
Anti-bacterial activity (MIC) ([5]; strain SPN 16-2): 0.5 µg/mL
Anti-bacterial activity (MIC) ([5]; strain SPN 16-4): 0.25 µg/mL
Anti-bacterial activity (MIC), strain ECO+ 15-1 ([6]; clinical isolate ECO+ 15-1): 16 µg/mL
Anti-bacterial activity (MIC), strain ECO+ 15-2 ([6]; clinical isolate ECO+ 15-2): 16 µg/mL
Anti-bacterial activity (MIC), strain ECO+ 15-3 ([6]; clinical isolate ECO+ 15-3): 16 µg/mL
Anti-bacterial activity (MIC), strain ECO+ 15-4 ([6]; clinical isolate ECO+ 15-4): 16 µg/mL
Anti-bacterial activity (MIC), strain ECO− 15-1 ([6]; clinical isolate ECO− 15-1): 16 µg/mL
Anti-bacterial activity (MIC), strain ECO− 15-2 ([6]; clinical isolate ECO− 15-2): 16 µg/mL
Anti-bacterial activity (MIC), strain ECO− 15-3 ([6]; clinical isolate ECO− 15-3): 16 µg/mL
Anti-bacterial activity (MIC), strain ECO− 15-4 ([6]; clinical isolate ECO− 15-4): 16 µg/mL
Anti-bacterial activity (MIC), strain MSSA 15-3 ([7]; clinical isolate MSSA 15-3): 0.125 µg/mL
Anti-bacterial activity (MIC), strain MSSA 15-4 ([7]; clinical isolate MSSA 15-4): 0.06 µg/mL
Anti-bacterial activity (MIC), strain MSSA 15-5 ([7]; clinical isolate MSSA 15-5): 0.03 µg/mL
Anti-bacterial activity (MIC), strain MSSA 15-6 ([7]; clinical isolate MSSA 15-6): 16 µg/mL
Anti-bacterial activity (MIC) ([8]; strain BCA 14-1): 0.25 µg/mL
Anti-bacterial activity (MIC) ([8]; strain BCA 14-4): 0.5 µg/mL
Anti-bacterial activity (MIC) ([8]; strain BCA 14-5): 0.125 µg/mL
Anti-bacterial activity (MIC) ([8]; strain BCA 14-6): 0.125 µg/mL
Anti-bacterial activity (MIC) ([8]; strain BCA 14-7): 0.5 µg/mL
Anti-bacterial activity (MIC) ([8]; strain BCA 14-8): 0.25 µg/mL
Anti-bacterial activity (MIC) ([8]; strain BCA 14-10): 0.125 µg/mL
Anti-bacterial activity (MIC), strain MRSA 15-1 ([9]; clinical isolate MRSA 15-1): 0.06 µg/mL
Anti-bacterial activity (MIC), strain MRSA 15-2 ([9]; clinical isolate MRSA 15-2): 0.125 µg/mL
Anti-bacterial activity (MIC), strain MRSA 15-3 ([9]; clinical isolate MRSA 15-3): 0.06 µg/mL
Anti-bacterial activity (MIC), strain MRSA 15-4 ([9]; clinical isolate MRSA 15-4): 0.125 µg/mL
MIC [10]: < 0.008 µg/mL
HCT116 inhibition rate/% [11]: 75%
Inhibition of proliferation, Liver cancer BEL-7402 [12]: 76%
inhibition at 30 µM [13]: > 50%
Inhibition of proliferation, Lung cancer A549 ([13]; 72 hours, 30 µM): 50%
inhibition at 30 µM [14]: > 50%
Inhibition of proliferation, Gastric cancer MGC-803 [14]: 63%
